Assay results as given in patent US20230047816A1 (priority 2018, published 2023).

Columns and labels:
[1] = all treated patients; cited from earlier work
HUVEC spheroids = assay: VEGF-A induced sprouting, spheroid-based cellular angiogenesis assay; type: cell-based; conditions: Homo sapiens
Description: The effect of PFKFB3 inhibitors on VEGF-A induced sprouting of HUVECs in a spheroid-based cellular angiogenesis assay. Sunitinib was used as a control. The experiments were pursued in modification of the originally published protocol (Korff and Augustin: J Cell Sci 112: 3249-58, 1999). In brief, spheroids were prepared as described (Korff and Augustin: J Cell Biol 143:1341-52, 1998) by pipetting 500 HUVEC in a hanging drop on plastic dishes to allow overnight spheroid aggregation. 50 HUVEC spheroids were then seeded in 0.9 ml of a collagen gel and pipetted into individual wells of a 24 well plate to allow polymerization. The test compounds in combination with the growth factor VEGF-A at 25 ng/ml final assay concentration) were added after 30 min by pipetting 100 μl of a 10-fold concentrated working solution on top of the polymerized gel. Plates were incubated at 37° C. for 24 hours and fixed by adding 4% Roti-Histofix (Roth, Karlsruhe, Germany). Sprouting intensity of HUVEC spheroids treated with the growth factor and the inhibitors were quantitated by an image analysis system determining the cumulative sprout length per spheroid (CSL) using an inverted microscope and the digital imaging software NIS-Elements BR 3.0 (Nikon). The mean of the cumulative sprout length of 10 randomly selected spheroids was analyzed as an individual data point.

HUVECs [2] = assay: Cell viability of HUVECs in normoxia and hypoxia; type: cell-based; conditions: both normoxia and hypoxia conditions; FIG. 1
4T1-M3-Luc breast tumor = assay: Orthotopic 4T1-M3-Luc syngeneic breast tumor model; type: in vivo, female BALB/c mice
Description: The aim of this study was to evaluate the antitumor and anti-metastatic efficacy of GO-672 (4-({4-carboxy-2′,4′-dichloro-[1,1′-biphenyl]-3-yl}carbamoyl)-6-hydroxybenzene-1,3-dicarboxylic acid) (30 mg/kg twice daily, i.p.) in an orthotopic 4T1-M3-Luc syngeneic breast tumor model in female BALB/c mice in vivo.
Level of metastasis was evaluated in lymph nodes, lung, spine and ileum by ex vivo luciferase bioluminescence measurements (FIG. 10D).

RENCA renal tumor = assay: Orthotopic RENCA syngeneic renal tumor model; type: in vivo, female BALB/c mice; conditions: 30 mg/kg twice daily, i.p.
Description: The aim of this study was to evaluate the antitumor efficacy of GO-672 (4-({4-carboxy-2′,4′-dichloro-[1,1′-biphenyl]-3-yl}carbamoyl)-6-hydroxybenzene-1,3-dicarboxylic acid) (30 mg/kg twice daily, i.p.) in an orthotopic RENCA syngeneic renal tumor model in female BALB/c mice in vivo.

HUVECs [3] = assay: HUVEC cell viability (Cyquant NF cell proliferation assay); type: cell-based, human; conditions: normoxia (20% O2) and hypoxia (1% O2)
Description: ThermoFisher Cyquant NF cell proliferation assay kit Normoxia conditions: 37° C., 5% CO2, 20% O2 incubator Hypoxia conditions: 37° C., 5% CO2, 1% O2 incubator FIG. 2. Effect of GO-672 on vessel sprouting in vitro. Raw images from the experiment with 3D spheroids of HUVEC after treatment with GO-672 (B) and Sunitinib (A). VEGF-A was used as a stimulation factor. Dose-response plot of GO-672 (C) and Sunitinib (D).

established tumors = conditions: reported in the literature; cited from earlier work
angiogenesis = conditions: reported in the literature; cited from earlier work
activated T-cells = conditions: reported in the literature; cited from earlier work
PFKFB3 = PFKFB3 (Homo sapiens, UniProt Q16875); conditions: reported in the literature; cited from earlier work
Chain of PFKFB3 (Q16875 whole entry, species assumed): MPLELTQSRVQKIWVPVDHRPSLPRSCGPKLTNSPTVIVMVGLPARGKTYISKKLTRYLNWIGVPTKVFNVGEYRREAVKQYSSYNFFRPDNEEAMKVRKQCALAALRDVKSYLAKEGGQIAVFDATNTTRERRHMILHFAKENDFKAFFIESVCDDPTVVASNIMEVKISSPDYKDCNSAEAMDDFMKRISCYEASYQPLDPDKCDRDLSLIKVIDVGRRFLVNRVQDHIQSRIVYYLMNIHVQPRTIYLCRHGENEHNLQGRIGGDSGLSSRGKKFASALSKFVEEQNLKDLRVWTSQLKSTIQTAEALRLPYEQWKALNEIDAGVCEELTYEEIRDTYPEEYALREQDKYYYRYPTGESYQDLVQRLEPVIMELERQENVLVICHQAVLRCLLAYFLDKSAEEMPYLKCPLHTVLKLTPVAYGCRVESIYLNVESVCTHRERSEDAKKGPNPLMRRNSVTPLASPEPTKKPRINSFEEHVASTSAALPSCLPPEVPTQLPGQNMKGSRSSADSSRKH

[4] = reported in the literature; cited from earlier work
[5] = cited from earlier work
MCF-7 = assay: Combination with anticancer agents, MCF-7; type: cell-based; conditions: Homo sapiens, MCF7, anticancer agent alone
Description: (§1) All cells can be incubated in the plates overnight at 37° C., 5% 002 incubator with different medium.

BT-549 = assay: Combination with anticancer agents, BT-549; type: cell-based; conditions: Homo sapiens, anticancer agent alone
Description: as §1

Hs-578T = assay: Combination with anticancer agents, Hs-578T; type: cell-based; conditions: Homo sapiens, anticancer agent alone
Description: as §1

MDA-MB-231 = assay: Combination with anticancer agents, MDA-MB-231; type: cell-based; conditions: Homo sapiens, anticancer agent alone
Description: as §1

T-47D = assay: Combination with anticancer agents, T-47D; type: cell-based; conditions: Homo sapiens, T47D, anticancer agent alone
Description: as §1

[6] = 30 mg/kg twice daily, i.p., day 18

SMILES: O=CC[C@@H](O)[C@H](O)[C@H](O)CO [2-deoxy-D-glucose]
- adverse effect in clinical trial [1]: hyperglycemia in all treated patients

SMILES: O=C(O)c1cc(C(=O)O)c(C(=O)Nc2cc(-c3ccc(Cl)cc3Cl)ccc2C(=O)O)cc1O [Compound 1, 4-({4-carboxy-2′,4′-dichloro-[1,1′-biphenyl]-3-yl}carbamoyl)-6-hydroxybenzene-1,3-dicarboxylic acid]
- Emax at 100 µM (HUVEC spheroids; HUVEC, at 100 μM, read-out: maximal effect: decrease of vessel sprouting down to): ~25%
- Emax (HUVEC spheroids; HUVEC, at the highest doses, read-out: maximal effect of vessel reduction, % from the initial level): 25 to 50%
- EC50 (HUVEC spheroids; 3D HUVEC model, VEGF-A 25 ng/ml, 24 hours, read-out: EC50 of inhibition of vessel sprouting): 20 to 40 µM
- cell viability of HUVECs (HUVECs [2]): did not reduce cell viability
- reduction of body weight vs control group (4T1-M3-Luc breast tumor; 30 mg/kg twice daily, i.p.): not significant
- T/C ratio (tumor volume) (4T1-M3-Luc breast tumor; 30 mg/kg twice daily, i.p., day 4): 47%
- T/C ratio (tumor volume) (4T1-M3-Luc breast tumor; 30 mg/kg twice daily, i.p., day 7): 65%
- tumor volume after necropsy (4T1-M3-Luc breast tumor; [6]): significantly lower
- tumor weight after necropsy (4T1-M3-Luc breast tumor; [6]): not tumor weight
- level of metastasis (ex vivo luciferase bioluminescence) (4T1-M3-Luc breast tumor; lymph nodes, lung, spine and ileum): No statistically significant difference
- bioluminescence (RENCA renal tumor; day 16): increase of bioluminescence
- tumor volume after necropsy (RENCA renal tumor; day 17): significantly decreased
- tumor weight after necropsy (RENCA renal tumor; day 17): no statistically significant difference
- cell viability of HUVECs (HUVECs [3]): did not reduce cell viability

SMILES: O=C(C=Cc1cccnc1)c1ccncc1 [Compound 3PO, 3-(3-pyridinyl)-1-(4-pyridinyl)-2-propen-1-one]
- growth of established tumors in vivo (established tumors): reduce growth of established tumors in vivo
- angiogenesis (angiogenesis): inhibit angiogenesis
- proliferation of activated T-cells (activated T-cells): inhibit proliferation of activated T-cells
- PFKFB3 inhibition (PFKFB3): inhibit PFKFB3
- glucose uptake [4]: reduce glucose uptake
- intracellular concentration of Fru-2,6-BP [4]: reduce intracellular concentration of Fru-2,6-BP

SMILES: O=C(O)c1nn(Cc2ccc(Cl)cc2Cl)c2ccccc12 [Lonidamine]
- toxicities in preclinical trials [5]: significant pancreatic and hepatic toxicities

SMILES: NC(=O)c1cccc2cn(-c3ccc([C@@H]4CCCNC4)cc3)nc12 [Niraparib]
- IC50 (MCF-7): 14.5 µM
- IC50 (BT-549): 31 µM
- IC50 (Hs-578T): 36 µM
- IC50 (MDA-MB-231): 14.6 µM
- IC50 (T-47D): 21 µM
